{
  "source": "paper PMC5218480",
  "about": "(PLoS ONE, 2017)",
  "system": "MV-4-11 cells",
  "assay": "Gene expression microarray analysis (Affymetrix PrimeView) and GSEA",
  "format": "cell-based, human",
  "settings": "ProbeSet 11717523_x_at; LIST B",
  "data": [
    {"smiles": "Nc1ncn([C@@H]2O[C@H](CO)[C@@H](O)[C@H]2O)c(=O)n1", "note": "[azacitidine]", "values": [
      {"measurement": "RFU, TMEM50B", "result": 81.58, "unit": "RFU"}
    ]}
  ]
}
